{
  "source": "paper PMC4291083",
  "about": "“Ex Vivo Characterization of a Novel Iodine-123-Labelled Aminomethylchroman as a Potential Agonist Ligand for SPECT Imaging of Dopamine D2/3 Receptors” (International Journal of Molecular Imaging, 2014)",
  "tested_on": "D2/3 receptors",
  "assay": "Blocking studies using ex vivo storage phosphor imaging (haloperidol)",
  "format": "in vivo",
  "settings": "2 h p.i., rats",
  "description": "To determine whether [^123I]-1 binds selectively to D2/3 receptors in vivo, in the following experiments 5 rats received an i.v. injection of the dopamine receptor blocker haloperidol (1 mg/kg) 5 min prior to the injection with [^123I]-1 (approximately 37 MBq). A control group (n = 5) was injected with 0.4 mL buffer 5 min prior to the injection with the radiopharmaceutical. Two hours after the injection of [^123I]-1 (this time point was based on the results of the classic biodistribution study; see Results) the rats were sacrificed by bleeding through heart puncture under O2/CO2 anaesthesia. The brains were quickly removed and immediately frozen on dry ice. Then the frozen brain was sliced horizontally in 50 μm thick slices. Storage phosphor imaging was done as previously described. In contrast to previous studies, we used a Typhoon FLA 7000 Phosphor imager (GE Healthcare Life Sciences, Uppsala, Sweden) and Hypercassette Amersham Biosciences imaging plates which were scanned at 25 μm pixel size. In this blocking experiment, storage phosphor imaging was used because this offers the opportunity to look into binding in ventral as well as dorsal parts of the striatum. In ventral parts, the expression of dopamine D3 receptors is higher than in more dorsal parts.",
  "data": [
    {"smiles": "Oc1ccc2c(c1)O[C@@H](CNCc1ccc([123I])cc1)CC2", "note": "[[^123I]-1]", "values": [
      {"measurement": "specific striatal binding", "setting": "haloperidol 1 mg/kg i.v. 5 min prior vs control", "result": "no specific striatal binding was observed"},
      {"measurement": "specific binding in other brain areas including the globus pallidus", "result": "no specific binding"},
      {"measurement": "uptake in white matter", "result": "high uptake in white matter"}
    ]}
  ]
}
